In PubChem BioAssay (NCI):
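Dose response: 5 concentrations. Exposure: 48 h. Format: 96-well plates. Endpoint: linear interpolation; highest concentration if not reached. At the TGI there is no net growth.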

Experiments:
Assay in all cases: inhibition of tumour cell growth, NCI panel, 48 h
OVCAR-3 ovarian = tested on: OVCAR-3 ovarian
SF-539 CNS = tested on: SF-539 CNS
M14 melanoma = tested on: M14 melanoma
SNB-75 CNS = tested on: SNB-75 CNS
SK-OV-3 ovarian = tested on: SK-OV-3 ovarian
NCI-H460 lung = tested on: NCI-H460 lung
MDA-N = tested on: MDA-N
KM12 colon = tested on: KM12 colon
SNB-19 CNS = tested on: SNB-19 CNS
U251 CNS = tested on: U251 CNS
MALME-3M melanoma = tested on: MALME-3M melanoma
OVCAR-8 ovarian = tested on: OVCAR-8 ovarian
UACC-62 melanoma = tested on: UACC-62 melanoma
SF-295 CNS = tested on: SF-295 CNS
RXF 393 renal = tested on: RXF 393 renal
T-47D breast = tested on: T-47D breast
NCI-H522 lung = tested on: NCI-H522 lung
COLO 205 colon = tested on: COLO 205 colon
TK-10 renal = tested on: TK-10 renal

O=C(O)c1ccc(NNC(=O)c2cccc3c(=O)c4ccccc4[nH]c23)cc1
TGI (OVCAR-3 ovarian): > 100 µM | TGI (SF-539 CNS): > 100 µM | TGI (M14 melanoma): > 100 µM | TGI (SNB-75 CNS): > 100 µM | TGI (SK-OV-3 ovarian): > 100 µM | TGI (NCI-H460 lung): > 100 µM | TGI (MDA-N): > 100 µM | TGI (KM12 colon): > 100 µM | TGI (SNB-19 CNS): > 100 µM | TGI (U251 CNS): > 100 µM | TGI (MALME-3M melanoma): > 100 µM | TGI (OVCAR-8 ovarian): > 100 µM | TGI (UACC-62 melanoma): > 100 µM | TGI (SF-295 CNS): > 100 µM | TGI (RXF 393 renal): > 100 µM | TGI (T-47D breast): > 100 µM | TGI (NCI-H522 lung): 96 µM | TGI (COLO 205 colon): > 100 µM | TGI (TK-10 renal): > 100 µM

O=c1/c(=C/c2ccc([N+](=O)[O-])o2)sc2n1[C@@H](c1ccc3c(c1)OCO3)C=C(c1cc(F)c(Cl)cc1Cl)N=2
TGI (OVCAR-3 ovarian): 35.3 µM | TGI (SF-539 CNS): > 100 µM | TGI (M14 melanoma): 31.8 µM | TGI (SNB-75 CNS): 37.4 µM | TGI (SK-OV-3 ovarian): > 100 µM | TGI (NCI-H460 lung): 49.8 µM | TGI (MDA-N): 43.3 µM | TGI (KM12 colon): 38.4 µM | TGI (SNB-19 CNS): 60.3 µM | TGI (U251 CNS): 46.5 µM | TGI (MALME-3M melanoma): 40.5 µM | TGI (OVCAR-8 ovarian): 56.4 µM | TGI (UACC-62 melanoma): 34 µM | TGI (SF-295 CNS): > 100 µM | TGI (RXF 393 renal): 43.2 µM | TGI (T-47D breast): 59.3 µM | TGI (NCI-H522 lung): 65.6 µM | TGI (COLO 205 colon): 71.4 µM | TGI (TK-10 renal): 47.8 µM

O=S(=O)(O)C(Cc1nc2ccccc2[nH]1)S(=O)(=O)OCCC1S(=O)(=O)OCCOS1(=O)=O (centres undefined)
TGI (OVCAR-3 ovarian): > 100 µM | TGI (SF-539 CNS): > 100 µM | TGI (M14 melanoma): > 100 µM | TGI (SNB-75 CNS): > 100 µM | TGI (SK-OV-3 ovarian): > 100 µM | TGI (NCI-H460 lung): > 100 µM | TGI (MDA-N): > 100 µM | TGI (KM12 colon): > 100 µM | TGI (SNB-19 CNS): > 100 µM | TGI (U251 CNS): > 100 µM | TGI (MALME-3M melanoma): > 100 µM | TGI (OVCAR-8 ovarian): > 100 µM | TGI (UACC-62 melanoma): > 100 µM | TGI (SF-295 CNS): > 100 µM | TGI (RXF 393 renal): > 100 µM | TGI (T-47D breast): > 100 µM | TGI (NCI-H522 lung): > 100 µM | TGI (COLO 205 colon): > 100 µM | TGI (TK-10 renal): > 100 µM

O=C(c1cccs1)N(Cc1cccnc1)C(=S)N(Cc1cccnc1)C(=O)c1cccs1
TGI (OVCAR-3 ovarian): > 100 µM | TGI (SF-539 CNS): 88.7 µM | TGI (M14 melanoma): > 100 µM | TGI (SNB-75 CNS): > 100 µM | TGI (SK-OV-3 ovarian): > 100 µM | TGI (NCI-H460 lung): > 100 µM | TGI (MDA-N): > 100 µM | TGI (KM12 colon): > 100 µM | TGI (SNB-19 CNS): > 100 µM | TGI (U251 CNS): > 100 µM | TGI (MALME-3M melanoma): > 100 µM | TGI (OVCAR-8 ovarian): > 100 µM | TGI (UACC-62 melanoma): > 100 µM | TGI (SF-295 CNS): > 100 µM | TGI (RXF 393 renal): > 100 µM | TGI (T-47D breast): > 100 µM | TGI (NCI-H522 lung): > 100 µM | TGI (COLO 205 colon): > 100 µM | TGI (TK-10 renal): > 100 µM

Cn1c(=O)c2c(nc3n(C)c(=O)c4ccccc4n23)n(C)c1=O
TGI (OVCAR-3 ovarian): > 100 µM | TGI (SF-539 CNS): > 100 µM | TGI (M14 melanoma): > 100 µM | TGI (SNB-75 CNS): > 93.5 µM | TGI (SK-OV-3 ovarian): > 100 µM | TGI (NCI-H460 lung): > 100 µM | TGI (MDA-N): > 100 µM | TGI (KM12 colon): > 100 µM | TGI (SNB-19 CNS): > 100 µM | TGI (U251 CNS): > 100 µM | TGI (MALME-3M melanoma): > 100 µM | TGI (OVCAR-8 ovarian): > 100 µM | TGI (UACC-62 melanoma): > 100 µM | TGI (SF-295 CNS): > 91.4 µM | TGI (RXF 393 renal): > 100 µM | TGI (T-47D breast): > 100 µM | TGI (NCI-H522 lung): > 100 µM | TGI (COLO 205 colon): > 100 µM | TGI (TK-10 renal): > 100 µM

COC(=O)c1ccccc1C1CN=NC12Cc1cc(C)cc(C)c1C2=O (centres undefined)
TGI (OVCAR-3 ovarian): > 100 µM | TGI (SF-539 CNS): > 100 µM | TGI (M14 melanoma): > 100 µM | TGI (SNB-75 CNS): > 100 µM | TGI (SK-OV-3 ovarian): > 100 µM | TGI (NCI-H460 lung): > 100 µM | TGI (MDA-N): > 100 µM | TGI (KM12 colon): > 100 µM | TGI (SNB-19 CNS): > 100 µM | TGI (U251 CNS): > 100 µM | TGI (MALME-3M melanoma): > 100 µM | TGI (OVCAR-8 ovarian): > 100 µM | TGI (UACC-62 melanoma): > 100 µM | TGI (SF-295 CNS): > 100 µM | TGI (RXF 393 renal): > 100 µM | TGI (T-47D breast): > 100 µM | TGI (NCI-H522 lung): 90 µM | TGI (COLO 205 colon): > 100 µM | TGI (TK-10 renal): > 100 µM
